Structures are written as SMILES.

This assay has as its system GEMIN2. The experiment in a line: AP-MS chemical proteomics, GEMIN2. The format is binding, human. On the procedure:
The samples for AP-MS were prepared following pulldown procedure as previously described with minor modifications. Briefly, U2OS cells were lysed in RIPA buffer and the cell lysate was equally divided into two groups: (1) DMSO group (control group): the cell lysate was incubated with 20 μM biotin-labeled compound 1; (2) Cpmd 1 group (sample group): the cell lysate was incubated with 20 μM biotin-labeled compound 1 and 200 μM free compound 1. Each group contains three biological replicates. They were incubated overnight at 4 °C, then 30 μL streptavidin beads (Thermo Fisher, 20353) was added and incubated at 4 °C for 1 h. The beads were then washed with RIPA buffer for 3 times, 10 min/time. […]
Samples were analyzed by nanoLC-MS/MS (nanoRSLC, Thermo Fisher) using an Aurora series (Ion Opticks) reversed phase HPLC column (25 cm length × 75 µm inner diameter) and directly injected to an Orbitrap Eclipse (Thermo Fisher) using a 120 min gradient (mobile phase A = 0.1% formic acid, mobile phase B = 99.9% acetonitrile with 0.1% formic acid; hold 2% B for 5 min, 2–6% B in 0.1 min, 6–25% in 100 min, 25–50% in 15 min) at a flow rate of 350 nL/min. Eluted peptide ions were analyzed using a data-dependent acquisition (DDA) method with resolution settings of 120,000 and 15,000 (at m/z 200) for MS1 and MS2 scans, respectively. […]

`Cn1c2c(c(=N)c3c1CCC3)CCC2` [Compound 1, 4-methyl-2,3,4,5,6,7-hexahydrodicyclopenta[b,e]pyridin-8(1H)-imine]: the Difference (GN=GEMIN2 (O14893), Cmpd minus DMSO, -LOG(P-value) 2.68522) is given as -5.244. Besides, the “log2 FC (Cmpd 1/DMSO), GEMIN2” value (biotin-Cmpd 1 pulldown, competition with 200 μM compound 1 relative to DMSO, U2OS lysate) is recorded as −5.2.
